pEC50: −log10 of the molar value.
Experiments:
[1] = molecular target: T1, GST-LXRβ ligand-binding domain (Homo sapiens, UniProt P55055, INS174Q); assay: TR-FRETβ activity assay (NCoA3 coactivator peptide recruitment); format: biochemical; conditions: 1 μM 24(S)-25-epoxycholesterol as prestimulating agonist; inverse agonist unless *
T1 construct: amino acids 156-461; NP009052; made in house; host or cells: E. coli
T1 sequence (P55055 with tags, fused parts or gaps INS174Q limits assumed): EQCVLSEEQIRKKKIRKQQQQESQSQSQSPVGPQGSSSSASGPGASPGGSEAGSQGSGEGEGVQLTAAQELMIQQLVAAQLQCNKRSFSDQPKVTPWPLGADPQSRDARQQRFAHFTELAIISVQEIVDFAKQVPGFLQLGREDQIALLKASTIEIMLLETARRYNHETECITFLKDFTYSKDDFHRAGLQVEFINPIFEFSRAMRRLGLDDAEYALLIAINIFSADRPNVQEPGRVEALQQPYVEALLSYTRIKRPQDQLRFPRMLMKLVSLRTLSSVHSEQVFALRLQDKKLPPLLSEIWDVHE
How it was run: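 E. coli-expressed GST-LXRβ LBD (aa 156-461, 76 nM) with biotinylated NCoA3 peptide (400 nM), anti-GST-Tb cryptate donor and streptavidin-XL665 acceptor in 240 mM KCl, BSA, 0.002% Triton X-100. Equilibrated 1 h at 4° C; TR-FRET read at 615/665 nm, triplicates.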

LXRα full length (FL) = molecular target: T2, LXRα full length (FL) (Homo sapiens, UniProt Q13133); assay: LXR Gal4 reporter transient transfection assay, mammalian two-hybrid, FL-M2H Gal4α; format: cell-based; conditions: HEK293 cells; inverse agonist unless *
T2 construct: the full length (FL) proteins of LXRα (amino acids 1-447); NP005684; expressed in transfected cells; host or cells: HEK293
T2 sequence (Q13133 1-447): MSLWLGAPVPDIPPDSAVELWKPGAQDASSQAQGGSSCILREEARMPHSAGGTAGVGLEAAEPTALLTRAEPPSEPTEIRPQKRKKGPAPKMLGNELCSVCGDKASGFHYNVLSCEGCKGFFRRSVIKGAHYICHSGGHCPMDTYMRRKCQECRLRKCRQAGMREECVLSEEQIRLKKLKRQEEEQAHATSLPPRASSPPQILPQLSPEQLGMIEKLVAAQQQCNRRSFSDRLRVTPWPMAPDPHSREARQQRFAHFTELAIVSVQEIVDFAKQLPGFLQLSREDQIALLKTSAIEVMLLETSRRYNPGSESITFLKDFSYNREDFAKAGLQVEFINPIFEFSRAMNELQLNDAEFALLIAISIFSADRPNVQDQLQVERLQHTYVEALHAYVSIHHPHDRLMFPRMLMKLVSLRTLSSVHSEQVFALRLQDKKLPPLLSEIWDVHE
How it was run: (§1)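 HEK293 cells transiently cotransfected with NFkB-AD fusions of full-length or LBD LXRα/β, GAL4-DBD fusions of SRC1 coactivator or NCoR corepressor domains, GAL4-driven firefly luciferase and Renilla control. Compound added 4 h post-transfection (≤0.2% DMSO), 16 h incubation; firefly and Renilla luminescence read sequentially.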

LXRβ full length (FL) = molecular target: T3, LXRβ full length (FL) (Homo sapiens, UniProt P55055, INS174Q); assay: LXR Gal4 reporter transient transfection assay, mammalian two-hybrid, FL-M2H Gal4β; format: cell-based; conditions: HEK293 cells; inverse agonist unless *
T3 construct: the full length (FL) proteins of LXRα (amino acids 1-447); NP005684; NP009052; expressed in transfected cells; host or cells: HEK293
T3 sequence (P55055 with tags, fused parts or gaps INS174Q): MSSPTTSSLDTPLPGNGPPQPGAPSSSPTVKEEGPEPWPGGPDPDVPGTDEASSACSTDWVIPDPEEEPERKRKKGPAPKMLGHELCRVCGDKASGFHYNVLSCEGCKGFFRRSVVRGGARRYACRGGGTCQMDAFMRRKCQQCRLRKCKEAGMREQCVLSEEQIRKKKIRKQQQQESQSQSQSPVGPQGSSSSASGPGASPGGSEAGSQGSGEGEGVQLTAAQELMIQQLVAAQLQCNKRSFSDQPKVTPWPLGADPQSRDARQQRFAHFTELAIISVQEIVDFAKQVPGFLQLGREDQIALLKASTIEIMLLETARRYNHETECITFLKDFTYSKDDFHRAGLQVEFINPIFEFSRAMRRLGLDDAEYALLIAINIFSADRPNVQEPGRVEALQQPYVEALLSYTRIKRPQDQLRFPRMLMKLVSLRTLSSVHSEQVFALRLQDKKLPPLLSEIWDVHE
How it was run: as §1

| SMILES | pEC50 [1] | pEC50 (LXRα full length (FL)) | pEC50 (LXRβ full length (FL)) | FRETβ [1] |
| --- | --- | --- | --- | --- |
| CC1=C(C(=O)N(Cc2ccc(-c3cccc(C(C)(C)C(=O)O)c3)cc2)Cc2ccc(C(F)(F)F)o2)c2ccccc2CC1 [27/95] | > 7.00 | > 7.00 | > 7.00 | – |
| CC(C)(C(=O)O)c1cccc(-c2ccc(CN(Cc3ccc(C(F)(F)F)o3)C(=O)C3C(C)(C)CCC3(C)C)cc2)c1 [27/97] | – | > 7.00 | > 7.00 | C* |
| CCOC(=O)c1ccc(CN(Cc2ncc(-c3cccc(C(C)C(=O)O)c3)cc2Cl)C(=O)c2c(C)c(C)nc3ccccc23)o1 (stereo not drawn) [27/98] | 6.00 to 7.00 | 6.00 to 7.00 | 6.00 to 7.00 | – |
| CCNC(=O)c1ccc(CN(Cc2ncc(-c3cccc(C(C)C(=O)O)c3)cc2Cl)C(=O)c2c(C)c(C)nc3ccccc23)o1 (stereo not drawn) [27/99] | 5.00 to 6.00 | 5.00 to 6.00 | 5.00 to 6.00 | – |
| Cc1nc2ccccc2c(C(=O)N(Cc2ccc(C(=O)N(C)C)o2)Cc2ncc(-c3cccc(C(C)C(=O)O)c3)cc2Cl)c1C (stereo not drawn) [27/100] | < 5.00 | 5.00 to 6.00 | 5.00 to 6.00 | – |
| Cc1nc2cccnc2c(C(=O)N(Cc2ccc(-c3cccc(C(C)C(=O)O)c3)cc2)Cc2ccc(C(F)(F)F)o2)c1C (stereo not drawn) [27/110] | 6.00 to 7.00 | > 7.00 | > 7.00 | – |
| Cc1nc2cccnc2c(C(=O)N(Cc2ccc(-c3cccc(C4(C(=O)O)CC4)c3)cc2)Cc2ccc(C(F)(F)F)o2)c1C [27/112] | 6.00 to 7.00 | > 7.00 | > 7.00 | – |
| Cc1nc2cccnc2c(C(=O)N(Cc2ccc(-c3cc(F)cc(C4(C(=O)O)CC4)c3)cc2)Cc2ccc(C(F)(F)F)o2)c1C [27/113] | 6.00 to 7.00 | > 7.00 | > 7.00 | – |
| Cc1ccc2ncnn2c1C(=O)N(Cc1ccc(-c2cccc(C(C)(C)C(=O)O)c2)cc1)Cc1ccc(C(F)(F)F)o1 [27/121] | > 7.00 | > 7.00 | > 7.00 | – |
| Cc1nc2cccnc2c(C(=O)N(Cc2ccc(-c3cccc(C(C)(C)C(=O)O)c3)cc2)Cc2ccc(C(F)F)o2)c1C [27/126] | 6.00 to 7.00 | > 7.00 | 6.00 to 7.00 | – |
| Cc1nc2cccnc2c(C(=O)N(Cc2ccc(-c3cccc(C(C)(C)C(=O)O)c3)cc2)Cc2nc(C(F)(F)F)cs2)c1C [27/130] | 6.00 to 7.00 | > 7.00 | > 7.00 | – |
| Cc1nc2cccnc2c(C(=O)N(Cc2ccc(-c3cccc(C(C)(C)C(=O)O)c3)cc2)Cc2cncc(C(F)(F)F)c2)c1C [27/131] | 6.00 to 7.00 | 6.00 to 7.00 | 6.00 to 7.00 | – |
| Cc1ccc(CN(Cc2ccc(-c3cccc(C(C)(C)C(=O)O)c3)cc2)C(=O)c2c(C)c(C)nc3cccnc23)o1 [27/132] | 5.00 to 6.00 | 6.00 to 7.00 | > 7.00 | – |
| Cc1nc2cccnc2c(CN(Cc2ccc(-c3cccc(C(C)(C)C(=O)O)c3)cc2)Cc2ccc(C(F)(F)F)o2)c1C [27/133] | – | > 7.00 | > 7.00 | C* |
| Cc1cc(C)c(CN(Cc2ccc(-c3cccc(S(=O)(=O)CC(=O)NS(C)(=O)=O)c3)cc2)Cc2ccc(C(F)(F)F)o2)c(C)c1 [Example 2] | 5.00 to 6.00 | 5.00 to 6.00 | 6.00 to 7.00 | – |

Continued, values first:

| pEC50 [1] | pEC50 (LXRα full length (FL)) | pEC50 (LXRβ full length (FL)) | FRETβ [1] | SMILES |
| --- | --- | --- | --- | --- |
| > 7.00 | > 7.00 | > 7.00 | – | Cc1cnc2ccccc2c1C(=O)N(Cc1ccc(-c2cccc(C(C)(C)C(=O)O)c2)cc1)Cc1ccc(C(F)(F)F)o1 [27/103] |
| 6.00 to 7.00 | > 7.00 | > 7.00 | – | COc1cc(-c2cccc(C(C)(C)C(=O)O)c2)ccc1CN(Cc1ccc(C(F)(F)F)o1)C(=O)c1c(C)c(C)nc2ccccc12 [27/104] |
| 6.00 to 7.00 | > 7.00 | > 7.00 | – | Cc1nc2ccccc2c(C(=O)N(Cc2ccc(C(F)(F)F)o2)Cc2ccc(-c3cccc(C(C)(C)C(=O)O)c3)cc2C#N)c1C [27/105] |
| 6.00 to 7.00 | > 7.00 | > 7.00 | – | COc1cc(-c2cccc(C(C)(C)C(=O)O)c2)ccc1CN(Cc1ccc(C(F)(F)F)o1)C(=O)c1c(C)c(C)nc2cccnc12 [27/108] |
| 5.00 to 6.00 | 6.00 to 7.00 | 6.00 to 7.00 | – | Cc1nc2cccnc2c(C(=O)N(Cc2ccc(C(F)(F)F)o2)Cc2ccc(-c3cccc(C(C)(C)C(=O)O)c3)cc2C#N)c1C [27/109] |
| 5.00 to 6.00 | 6.00 to 7.00 | > 7.00 | – | Cc1cc(C(=O)N(Cc2ccc(-c3cccc(C(C)(C)C(=O)O)c3)cc2)Cc2ccc(C(F)(F)F)o2)c2ncccc2n1 [27/111] |
| 6.00 to 7.00 | > 7.00 | > 7.00 | – | Cc1nc2cccnc2c(C(=O)N(Cc2ccc(C(F)(F)F)o2)Cc2ccc(-c3cccc(C(C)(C)C(=O)O)c3)cc2F)c1C [27/114] |
| 6.00 to 7.00 | > 7.00 | > 7.00 | – | Cc1cnc2cccnc2c1C(=O)N(Cc1ccc(C(F)(F)F)o1)Cc1ccc(-c2cccc(C(C)(C)C(=O)O)c2)cc1Cl [27/115] |
| 5.00 to 6.00 | 6.00 to 7.00 | 6.00 to 7.00 | – | Cc1nc2cccnn2c1C(=O)N(Cc1ccc(-c2cccc(C(C)(C)C(=O)O)c2)cc1)Cc1ccc(C(F)(F)F)o1 [27/116] |
| 5.00 to 6.00 | 5.00 to 6.00 | 5.00 to 6.00 | – | Cc1nc2ncccn2c1C(=O)N(Cc1ccc(-c2cccc(C(C)(C)C(=O)O)c2)cc1)Cc1ccc(C(F)(F)F)o1 [27/117] |
| 6.00 to 7.00 | 6.00 to 7.00 | 6.00 to 7.00 | – | Cc1nc2ccccn2c1C(=O)N(Cc1ccc(-c2cccc(C(C)(C)C(=O)O)c2)cc1)Cc1ccc(C(F)(F)F)o1 [27/118] |
| 5.00 to 6.00 | 6.00 to 7.00 | 6.00 to 7.00 | – | Cc1nc2ccccc2c(C(=O)N(Cc2ccc(-c3cccc(C(C)(C)C(=O)O)c3)cc2)Cc2ccc(C(F)(F)F)o2)c1O [27/120] |
| 5.00 to 6.00 | 6.00 to 7.00 | 6.00 to 7.00 | – | Cc1nn2ncccc2c1C(=O)N(Cc1ccc(-c2cccc(C(C)(C)C(=O)O)c2)cc1)Cc1ccc(C(F)(F)F)o1 [27/122] |
| 6.00 to 7.00 | > 7.00 | > 7.00 | – | Cc1cc(C(=O)N(Cc2ccc(C(F)(F)F)o2)Cc2ccc(-c3cccc(C(C)(C)C(=O)O)c3)cc2Cl)c2ncccc2n1 [27/123] |
| > 7.00 | > 7.00 | > 7.00 | – | COc1cnc2cccnc2c1C(=O)N(Cc1ccc(C(F)(F)F)o1)Cc1ccc(-c2cccc(C(C)(C)C(=O)O)c2)cc1Cl [27/124] |
| 6.00 to 7.00 | > 7.00 | > 7.00 | – | Cc1ccc2nc(C)cc(C(=O)N(Cc3ccc(-c4cccc(C(C)(C)C(=O)O)c4)cc3)Cc3ccc(C(F)(F)F)o3)c2c1 [27/125] |
| 5.00 to 6.00 | 6.00 to 7.00 | 6.00 to 7.00 | – | Cc1cc(C(=O)N(Cc2ccc(-c3cccc(C(C)(C)C(=O)O)c3)cc2)Cc2ccc(C(F)(F)F)o2)c2ccc(F)cc2n1 [27/127] |
| 6.00 to 7.00 | 6.00 to 7.00 | > 7.00 | – | CC(C)(C(=O)O)c1cccc(-c2ccc(CN(Cc3ccc(C(F)(F)F)o3)C(=O)c3cc(C4CC4)nc4ccccc34)cc2)c1 [27/129] |
| 6.00 to 7.00 | > 7.00 | > 7.00 | – | Cc1nc2cnccc2c(C(=O)N(Cc2ccc(-c3cccc(C(C)(C)C(=O)O)c3)cc2)Cc2ccc(C(F)(F)F)o2)c1C [27/135] |
